Patent publication US5216005A, “Immunosuppressive analogues and derivatives of succinylacetone” (priority 1990, dated 1993)

Experiments:
Format in all cases: cell-based
[1] = tested on: IL-2 (human lymphoid cells); assay: IL-2 production in primary mixed lymphocyte reaction (HT-2 cell assay); set-up: IL-2: unit not given here; settings: for IL-2: 1° MLR
Protocol: Derivatives of succinylacetone were tested for immunosuppressive activity in several different types of assay systems. The first consisted of measuring the amounts of interleukin-2 (IL-2), and interferon-γ (IFN-γ) produced by human lymphoid cells in a mixed lymphocyte reaction. Low levels of these molecules in the reaction mixture indicate that the immune system is being suppressed by the subject succinylacetone derivatives. IL-2 was measured by enumerating the number of viable HT-2 cells found after an 18-24 hours period. HT-2 cells are a mouse IL-2 dependent cell line which die in the absence of IL-2. The assay is described by Gillis et al., J. of Immunol. […] The mixed lymphocyte reaction assay can be carried out by techniques well known to those skilled in the art. L. Hudson and F. C. Huy, Practical Immunology, p. […] Briefly this consists of isolating lymphocytes from human peripheral blood by standard density gradient centrifugation techniques from two separate individuals. Approximately 2×10^5 lymphocytes of each individual are combined to yield a total of 4×10^5 lymphocytes per culture. All procedures are carried out under sterile conditions, and the lymphocytes are isolated and kept in physiologically compatible solutions. To the mixture of lymphocytes is added a desired amount of an appropriate succinylacetone derivative, and after different times an aliquot of the mixture is removed and assayed for IL-2 or IFN-γ, or ^[…] is measured.

human lymphocytes [2] = assay: tritiated thymidine uptake in primary mixed lymphocyte reaction; settings: for CPM ± SD: 1° MLR
Source text: The in vitro mixed lymphocyte assay described below is presently employed in the clinical setting as an indicator of histocompatibility, and is premised on the transformation of resting genetically dissimilar lymphocytes into cells which synthesize DNA and undergo proliferation.
The mixed lymphocyte reaction assay can be carried out by techniques well known to those skilled in the art. L. Hudson and F. C. Huy, Practical Immunology, p. 260, Blackwell Scientific Publications (1976). Briefly this consists of isolating lymphocytes from human peripheral blood by standard density gradient centrifugation techniques from two separate individuals. Approximately 2×10^5 lymphocytes of each individual are combined to yield a total of 4×10^5 lymphocytes per culture. All procedures are carried out under sterile conditions, and the lymphocytes are isolated and kept in physiologically compatible solutions. To the mixture of lymphocytes is added a desired amount of an appropriate succinylacetone derivative, and after different times an aliquot of the mixture is removed and assayed for IL-2 or IFN-γ, or ^3 H-T is measured.
As mentioned above, one measure of an immune response as reflected in a mixed lymphocyte assay is the stimulation of DNA synthesis, and a concomitant increase in cell number. Thus, to further ascertain the immunosuppressive activity of succinylacetonyl-proline-NH-PEG, its effect on inhibition of thymocyte growth, as detected by uptake of tritiated thymidine, was assayed.

human lymphocytes [3] = assay: phytohemagglutinin (PHA) stimulation assay, tritiated thymidine uptake; settings: for IC50: Homo sapiens, Lymphocyte, read-out: concentration causing 50% inhibition of PHA stimulation
Protocol: A second assay widely used to study immune responsiveness is mitogenic stimulation of thymocytes with antigenic substances of plant origin. The most widely used plant molecule is phytohemagglutinin (PHA).
The procedure for carrying out the phytohaemagglutinin assay is also well known to those skilled in the art. Briefly, it consists of isolating human lymphocytes as described above, and incubating about 1.0×10^6 cells per ml in a suitable physiological solution with phytohaemagglutinin, and the appropriate concentration of succinylacetone-proline-NH-PEG. Tritiated thymidine is added 48 hours later and allowed to incubate for twenty-four hours before the cells are counted.

human lymphoid cells = assay: tritiated thymidine uptake in secondary mixed lymphocyte reaction; settings: 2°-MLR; for inhibition at 740 µM / inhibition at 2200 µM / inhibition at 6700 µM / inhibition at 20000 µM: Homo sapiens, Lymphocyte
Protocol: In addition to testing the immunosuppressive activities of succinylacetone derivatives in a primary mixed lymphocyte reaction, or a phytohemagglutinin stimulation assay, two of the derivatives, succinylacetone methyl ester and methyl 4-acetyl-5-oxohexanoate, were tested in a secondary mixed lymphocyte reaction assay. The secondary mixed lymphocyte assays differs from the primary mixed lymphocyte reaction assays in that they employ many more primed responder cells that are responsive to the primary stimulating cells. The presence of such responsive cells is a reflection of immunological memory in an ongoing immunological response. […] These cells are then used in the secondary mixed lymphocyte reaction. It is worth noting that because a secondary mixed lymphocyte reaction is greatly enriched for responsive cells, fewer cells can be used in the secondary assay.
It will be appreciated that described therein is a method for carrying out secondary lymphocyte reactions using mouse cells, however such methods are generally applicable to performing secondary mixed lymphocyte reactions using human cells with modifications that are well known to those skilled in the art. […] The assays were conducted in duplicate involving lymphoid cells isolated from two individuals.

## COC(=O)CCC(=O)CC(C)=O [Succinylacetone Methyl Ester, methyl 4-6-dioxoheptanoate]
[1]; Exp I, 3 μM
  IL-2: 41
[1]; Exp I, 9 μM
  IL-2: 28
[1]; Exp I, 27 μM
  IL-2: 25
[1]; Exp I, 81 μM
  IL-2: 24
[1]; Exp I, 244 μM
  IL-2: 19
[1]; Exp I, 733 μM
  IL-2: 14
[1]; Exp I, 2.2 mM
  IL-2: < 6
[1]; Exp I, 6.7 mM
  IL-2: < 6
[1]; Exp I, 20 mM
  IL-2: < 6
[1]; Exp II, 3 μM
  IL-2: 34
[1]; Exp II, 9 μM
  IL-2: 38
[1]; Exp II, 27 μM
  IL-2: 34
[1]; Exp II, 81 μM
  IL-2: 28
[1]; Exp II, 244 μM
  IL-2: 28
[1]; Exp II, 733 μM
  IL-2: 23
[1]; Exp II, 2.2 mM
  IL-2: < 8
[1]; Exp II, 6.7 mM
  IL-2: < 8
[1]; Exp II, 20 mM
  IL-2: < 8
[1]; Homo sapiens, HT2, read-out: concentration that inhibits IL-2 production by about 50%
  IC50: ~733 µM
Human lymphocytes [2]; Exp I, 3 μM
  CPM ± SD: 81740 CPM
Human lymphocytes [2]; Exp I, 9 μM
  CPM ± SD: 87101 CPM
Human lymphocytes [2]; Exp I, 27 μM
  CPM ± SD: 75211 CPM
Human lymphocytes [2]; Exp I, 81 μM
  CPM ± SD: 80182 CPM
Human lymphocytes [2]; Exp I, 244 μM
  CPM ± SD: 66159 CPM
Human lymphocytes [2]; Exp I, 733 μM
  CPM ± SD: 30535 CPM
Human lymphocytes [2]; Exp I, 2.2 mM
  CPM ± SD: 3185 CPM
Human lymphocytes [2]; Exp I, 6.7 mM
  CPM ± SD: 89 CPM
Human lymphocytes [2]; Exp I, 20 mM
  CPM ± SD: 164 CPM
Human lymphocytes [2]; Exp II, 3 μM
  CPM ± SD: 114428 CPM
Human lymphocytes [2]; Exp II, 9 μM
  CPM ± SD: 110425 CPM
Human lymphocytes [2]; Exp II, 27 μM
  CPM ± SD: 97879 CPM
Human lymphocytes [2]; Exp II, 81 μM
  CPM ± SD: 87595 CPM
Human lymphocytes [2]; Exp II, 244 μM
  CPM ± SD: 78306 CPM
Human lymphocytes [2]; Exp II, 733 μM
  CPM ± SD: 40700 CPM
Human lymphocytes [2]; Exp II, 2.2 mM
  CPM ± SD: 33497 CPM
Human lymphocytes [2]; Exp II, 6.7 mM
  CPM ± SD: 126 CPM
Human lymphocytes [2]; Exp II, 20 mM
  CPM ± SD: 90 CPM
Human lymphocytes [2]; Homo sapiens, Lymphocyte, read-out: concentration for 50% reduction in thymidine uptake
  IC50: ~733 µM
Human lymphocytes [3]; one assay
  IC50: 103 to 309 µM
Human lymphocytes [3]; second assay
  IC50: ~103 µM
Human lymphocytes [3]; first experiment, 3.8 μM
  PHA stimulation, cpm ± SD: 20292 cpm
Human lymphocytes [3]; first experiment, 11 μM
  PHA stimulation, cpm ± SD: 18100 cpm
Human lymphocytes [3]; first experiment, 34 μM
  PHA stimulation, cpm ± SD: 16549 cpm
Human lymphocytes [3]; first experiment, 103 μM
  PHA stimulation, cpm ± SD: 17595 cpm
Human lymphocytes [3]; first experiment, 309 μM
  PHA stimulation, cpm ± SD: 5927 cpm
Human lymphocytes [3]; first experiment, 962 μM
  PHA stimulation, cpm ± SD: 565 cpm
Human lymphocytes [3]; first experiment, 2.8 mM
  PHA stimulation, cpm ± SD: 126 cpm
Human lymphocytes [3]; first experiment, 25 mM
  PHA stimulation, cpm ± SD: 113 cpm
Human lymphocytes [3]; first experiment, 83 mM
  PHA stimulation, cpm ± SD: 79 cpm
Human lymphocytes [3]; second experiment, 3.8 μM
  PHA stimulation, cpm ± SD: 37936 cpm
Human lymphocytes [3]; second experiment, 11 μM
  PHA stimulation, cpm ± SD: 28645 cpm
Human lymphocytes [3]; second experiment, 34 μM
  PHA stimulation, cpm ± SD: 28614 cpm
Human lymphocytes [3]; second experiment, 103 μM
  PHA stimulation, cpm ± SD: 17733 cpm
Human lymphocytes [3]; second experiment, 309 μM
  PHA stimulation, cpm ± SD: 5292 cpm
Human lymphocytes [3]; second experiment, 962 μM
  PHA stimulation, cpm ± SD: 6949 cpm
Human lymphocytes [3]; second experiment, 2.8 mM
  PHA stimulation, cpm ± SD: 65 cpm
Human lymphocytes [3]; second experiment, 25 mM
  PHA stimulation, cpm ± SD: 112 cpm
Human lymphocytes [3]; second experiment, 83 mM
  PHA stimulation, cpm ± SD: 107 cpm
Human lymphoid cells; Exp I, 247 μM
  CPM: 87337 CPM
Human lymphoid cells; Exp I, 740 μM
  CPM: 67456 CPM
  inhibition at 740 µM: 16.3%
Human lymphoid cells; Exp I, 2.2 mM
  CPM: 11778 CPM
  inhibition at 2200 µM: 85.4%
Human lymphoid cells; Exp I, 6.7 mM
  CPM: 51 CPM
  inhibition at 6700 µM: 9.99%
Human lymphoid cells; Exp I, 20 mM
  CPM: 64 CPM
  inhibition at 20000 µM: 99.9%
Human lymphoid cells; Exp II, 247 μM
  CPM: 125345 CPM
Human lymphoid cells; Exp II, 740 μM
  CPM: 85447 CPM
  inhibition at 740 µM: 8.5%
Human lymphoid cells; Exp II, 2.2 mM
  CPM: 29851 CPM
  inhibition at 2200 µM: 68%
Human lymphoid cells; Exp II, 6.7 mM
  CPM: 62 CPM
  inhibition at 6700 µM: 9.99%
Human lymphoid cells; Exp II, 20 mM
  CPM: 87 CPM
  inhibition at 20000 µM: 99.9%
